The target in experiment [1] is EGFR-T790M (Homo sapiens (Human), UniProt P00533, T790M). Kind of experiment: In vitro EGFR kinase activity assay (Z'-Lyte). The settings on record: read-out: Inhibitory activity on EGFR kinase (IC50, nM) T790M.
Procedure: (§2) Inhibitory effects in vitro of the compounds provided in the present invention on EGFR kinase activity was tested as follows:
(§3) 10 concentration gradients, from 5.1×10^−11 mol/L to 1.0×10^−6 mol/L, were set for all of the compounds to be tested.
(§4) 10 μL of kinase reaction system comprised 2.5 μL of compound solution, 5 μL of Kinase/peptide mixture, and 2.5 μL of ATP solution. 5 μL of phosphopeptide solution was used in place of kinase/peptide mixture as 100% phosphorylation control. […] After thoroughly mixing the solution within the plate, the plate was incubated at room temperature for 1.5 hours. 5 μL of DevelopmentSolution was added into each well, and then the plate was incubated at room temperature for another 1 hour, and non-phosphorylated peptide was cleaved within this period. Finally, the reaction was quenched by adding 5 μL of Stop Reagent. The Plate was measured with EnVision Multilabel Reader (Perkin Elmer). Experimental data were calculated by using GraphPad Prism version 4.0. Each experiment was repeated more than three times.
For experiment [2], the target named is BLK (Homo sapiens (Human), UniProt P51451). Kind of experiment: BLK kinase activity assay (Caliper). The following applies: read-out: Inhibitory activity on kinase (IC50, nM) BLK. The experiment is classed as biochemical.
Chain of BLK (P51451 whole entry): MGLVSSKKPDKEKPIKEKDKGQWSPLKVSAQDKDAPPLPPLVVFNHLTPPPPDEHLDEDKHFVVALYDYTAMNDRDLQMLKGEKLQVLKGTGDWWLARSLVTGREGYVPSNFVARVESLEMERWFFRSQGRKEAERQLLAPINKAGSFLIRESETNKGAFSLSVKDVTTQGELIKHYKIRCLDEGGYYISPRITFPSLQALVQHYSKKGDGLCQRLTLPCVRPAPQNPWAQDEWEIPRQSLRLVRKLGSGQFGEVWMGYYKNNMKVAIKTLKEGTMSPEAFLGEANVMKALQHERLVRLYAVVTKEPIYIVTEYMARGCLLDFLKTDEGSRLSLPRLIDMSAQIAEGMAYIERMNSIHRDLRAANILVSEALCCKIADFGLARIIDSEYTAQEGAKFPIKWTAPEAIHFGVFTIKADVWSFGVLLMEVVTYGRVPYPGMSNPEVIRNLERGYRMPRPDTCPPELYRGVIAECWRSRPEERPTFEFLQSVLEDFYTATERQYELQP
The target in experiment [3] is FLT3 (Homo sapiens (Human), UniProt P36888). Put plainly: FLT3 kinase activity assay (Caliper). Format: biochemical. The following applies: read-out: Inhibitory activity on kinase (IC50, nM) FLT3.
Chain of FLT3 (P36888 27-993): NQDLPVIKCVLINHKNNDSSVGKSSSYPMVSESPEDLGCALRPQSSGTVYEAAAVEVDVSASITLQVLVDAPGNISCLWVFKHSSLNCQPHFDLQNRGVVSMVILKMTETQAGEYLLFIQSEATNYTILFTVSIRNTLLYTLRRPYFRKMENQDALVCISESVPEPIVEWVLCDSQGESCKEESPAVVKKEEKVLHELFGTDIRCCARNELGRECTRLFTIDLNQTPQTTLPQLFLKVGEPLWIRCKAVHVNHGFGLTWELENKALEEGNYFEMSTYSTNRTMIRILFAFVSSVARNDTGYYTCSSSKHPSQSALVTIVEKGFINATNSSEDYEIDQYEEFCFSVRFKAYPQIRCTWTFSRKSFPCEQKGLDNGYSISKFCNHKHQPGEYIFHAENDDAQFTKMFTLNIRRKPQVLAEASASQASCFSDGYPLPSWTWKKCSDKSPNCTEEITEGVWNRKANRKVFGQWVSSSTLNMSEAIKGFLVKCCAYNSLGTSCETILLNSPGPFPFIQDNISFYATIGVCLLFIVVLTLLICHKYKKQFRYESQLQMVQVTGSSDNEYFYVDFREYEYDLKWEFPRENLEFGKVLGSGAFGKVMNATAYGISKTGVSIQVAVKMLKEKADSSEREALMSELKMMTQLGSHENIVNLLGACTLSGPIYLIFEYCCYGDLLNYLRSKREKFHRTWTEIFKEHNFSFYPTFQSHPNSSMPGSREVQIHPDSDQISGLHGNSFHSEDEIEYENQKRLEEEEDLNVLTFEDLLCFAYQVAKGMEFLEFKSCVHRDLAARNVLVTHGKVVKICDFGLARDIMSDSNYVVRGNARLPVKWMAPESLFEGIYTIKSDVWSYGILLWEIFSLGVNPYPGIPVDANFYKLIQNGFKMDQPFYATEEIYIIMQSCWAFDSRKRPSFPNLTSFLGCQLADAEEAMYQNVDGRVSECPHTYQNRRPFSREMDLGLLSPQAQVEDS
In experiment [4] the target is EGFR-L858R/T790M (Homo sapiens (Human), UniProt P00533, L858R/T790M). Kind of experiment: In vitro EGFR kinase activity assay (Z'-Lyte). Format: biochemical. The settings on record: read-out: Inhibitory activity on EGFR kinase (IC50, nM) T790M/L858R.
Chain of EGFR-L858R/T790M (P00533 25-1210 T790M/L858R): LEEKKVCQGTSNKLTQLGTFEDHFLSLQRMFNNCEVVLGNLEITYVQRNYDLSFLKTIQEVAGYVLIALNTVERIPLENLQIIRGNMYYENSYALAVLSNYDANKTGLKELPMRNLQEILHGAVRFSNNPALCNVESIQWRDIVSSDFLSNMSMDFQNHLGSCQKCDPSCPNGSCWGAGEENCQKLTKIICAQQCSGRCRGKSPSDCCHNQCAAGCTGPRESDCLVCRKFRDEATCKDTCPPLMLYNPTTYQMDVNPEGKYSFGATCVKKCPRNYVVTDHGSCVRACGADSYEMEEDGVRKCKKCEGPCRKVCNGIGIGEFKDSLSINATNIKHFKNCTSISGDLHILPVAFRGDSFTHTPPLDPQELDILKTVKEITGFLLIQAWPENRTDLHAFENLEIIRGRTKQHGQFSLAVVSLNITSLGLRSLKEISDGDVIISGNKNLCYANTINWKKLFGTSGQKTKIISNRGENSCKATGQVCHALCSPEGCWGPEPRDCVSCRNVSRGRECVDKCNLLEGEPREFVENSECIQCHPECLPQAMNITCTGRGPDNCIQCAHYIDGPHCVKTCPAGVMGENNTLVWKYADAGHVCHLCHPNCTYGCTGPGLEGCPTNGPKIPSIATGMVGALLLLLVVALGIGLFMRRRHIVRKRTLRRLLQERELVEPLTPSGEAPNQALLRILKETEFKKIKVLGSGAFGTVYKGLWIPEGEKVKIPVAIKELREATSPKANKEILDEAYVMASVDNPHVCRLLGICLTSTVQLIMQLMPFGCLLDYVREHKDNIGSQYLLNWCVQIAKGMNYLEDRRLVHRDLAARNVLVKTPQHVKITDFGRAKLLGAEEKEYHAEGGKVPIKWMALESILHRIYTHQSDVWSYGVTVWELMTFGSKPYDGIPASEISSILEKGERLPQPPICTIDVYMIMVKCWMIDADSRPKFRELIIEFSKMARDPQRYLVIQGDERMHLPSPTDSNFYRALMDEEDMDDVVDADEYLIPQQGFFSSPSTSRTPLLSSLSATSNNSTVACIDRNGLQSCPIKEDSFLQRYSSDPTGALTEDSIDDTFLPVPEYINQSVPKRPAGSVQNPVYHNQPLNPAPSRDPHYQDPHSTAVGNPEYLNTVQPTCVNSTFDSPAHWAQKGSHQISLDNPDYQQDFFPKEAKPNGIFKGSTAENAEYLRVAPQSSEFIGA
Procedure: as §2, §3, §4
In experiment [5] the test system is A549 (non-small cell lung cancer cells, EGFR wild-type). Put plainly: Cell proliferation and growth inhibition analysis. Format: cell-based. The following applies: Homo sapiens, 72 hours, read-out: Inhibitory activity on cell proliferation (IC50, μM) A549. Here is the method:
(§1) Cell proliferation and growth inhibition analysis: H1975 (non-small cell lung cancer cells, EGFR^L858/T790M), HCC827 (non-small cell lung cancer cells, EGFR^del E746-A750), A549 (non-small cell lung cancer cells, EGFR wild-type), BT474 (breast cancer cells, Her2 overexpression), SK-BR-3 (breast cancer cells, Her2 overexpression), MCF-7 (breast cancer cells, […]) cells were obtained from ATCC. Cell proliferation was evaluated by MTS assay. Cells were exposed to the process conditions for 72 hours, and the number of cells for each cell line used in the experiment was adjusted according to the absorbance value (absorbance value at 490 nm was 1.3-2.2). 6 concentration gradients (0.1 nM-10 μM) were set for the compounds to be tested, with six parallel controls for each concentration.

Experiment [6] has as its system MCF-7. Kind of experiment: Cell proliferation and growth inhibition analysis. Format: cell-based. The settings on record: Homo sapiens, MCF7; MCF-7 cells, 72 hours; read-out: Inhibitory activity on cell proliferation (IC50, μM) MCF-7. Here is the method:
as §1

Experiment [7] has as its system BT474 (breast cancer cells, Her2 overexpression). Put plainly: Cell proliferation and growth inhibition analysis. Format: cell-based. The following applies: Homo sapiens, BT-474, 72 hours, read-out: Inhibitory activity on cell proliferation (IC50, μM) BT474. As to the method: as §1
The test system of experiment [8] is SK-BR-3 (breast cancer cells, Her2 overexpression). Put plainly: Cell proliferation and growth inhibition analysis. The experiment is classed as cell-based. The following applies: Homo sapiens; SK-BR-3 cells, 72 hours; read-out: Inhibitory activity on cell proliferation (IC50, μM) SK-BR-3. As to the method:
as §1

Experiment [9] deals with wild-type EGFR (Homo sapiens (Human), UniProt P00533). Kind of experiment: In vitro EGFR kinase activity assay (Z'-Lyte). The settings on record: EGFR WT; read-out: Inhibitory activity on EGFR kinase (IC50, nM) WT. Format: biochemical.
Chain of wild-type EGFR (P00533 25-1210): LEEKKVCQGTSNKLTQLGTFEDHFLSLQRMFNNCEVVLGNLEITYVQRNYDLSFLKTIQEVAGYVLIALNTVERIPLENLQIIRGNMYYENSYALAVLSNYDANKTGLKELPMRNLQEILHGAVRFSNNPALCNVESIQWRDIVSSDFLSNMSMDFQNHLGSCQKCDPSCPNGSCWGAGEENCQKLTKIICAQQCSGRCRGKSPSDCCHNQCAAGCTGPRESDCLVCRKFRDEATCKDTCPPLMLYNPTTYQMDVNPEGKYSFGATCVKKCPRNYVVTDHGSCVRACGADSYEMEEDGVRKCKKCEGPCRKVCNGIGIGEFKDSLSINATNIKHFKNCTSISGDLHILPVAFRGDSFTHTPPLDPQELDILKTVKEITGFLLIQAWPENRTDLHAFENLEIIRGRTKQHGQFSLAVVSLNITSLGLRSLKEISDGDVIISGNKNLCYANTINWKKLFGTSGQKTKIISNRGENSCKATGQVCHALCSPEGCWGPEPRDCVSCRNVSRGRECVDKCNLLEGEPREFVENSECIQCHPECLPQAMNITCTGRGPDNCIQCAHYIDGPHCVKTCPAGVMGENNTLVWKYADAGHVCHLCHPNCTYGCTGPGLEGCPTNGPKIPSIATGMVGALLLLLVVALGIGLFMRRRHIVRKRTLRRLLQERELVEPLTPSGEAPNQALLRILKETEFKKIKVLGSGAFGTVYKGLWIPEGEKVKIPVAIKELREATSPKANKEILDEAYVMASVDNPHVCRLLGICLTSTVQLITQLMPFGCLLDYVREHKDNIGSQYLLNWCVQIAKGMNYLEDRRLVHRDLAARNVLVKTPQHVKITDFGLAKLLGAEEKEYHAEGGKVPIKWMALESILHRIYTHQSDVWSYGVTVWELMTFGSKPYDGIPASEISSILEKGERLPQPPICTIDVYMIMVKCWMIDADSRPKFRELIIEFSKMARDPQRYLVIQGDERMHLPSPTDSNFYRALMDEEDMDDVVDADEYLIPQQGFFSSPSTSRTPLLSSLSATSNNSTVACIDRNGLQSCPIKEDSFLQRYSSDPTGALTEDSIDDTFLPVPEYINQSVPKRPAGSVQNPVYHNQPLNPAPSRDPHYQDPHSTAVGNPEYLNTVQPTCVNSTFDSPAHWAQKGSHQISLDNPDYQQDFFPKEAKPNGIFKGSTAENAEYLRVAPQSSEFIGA
Experiment [10] concerns HCC827 (non-small cell lung cancer cells, EGFR del E746-A750). Kind of experiment: Cell proliferation and growth inhibition analysis. The experiment is classed as cell-based. The settings on record: Homo sapiens, 72 hours, read-out: Inhibitory activity on cell proliferation (IC50, μM) HCC827.
The subject of experiment [11] is H1975 (non-small cell lung cancer cells, EGFR L858R/T790M). Put plainly: Cell proliferation and growth inhibition analysis. The settings on record: Homo sapiens, NCI-H1975, 72 hours, read-out: Inhibitory activity on cell proliferation (IC50, μM) H1975. The experiment is classed as cell-based.
For experiment [12], the target named is EGFR-L858R (Homo sapiens (Human), UniProt P00533, L858R). Kind of experiment: In vitro EGFR kinase activity assay (Z'-Lyte). Format: biochemical. The following applies: read-out: Inhibitory activity on EGFR kinase (IC50, nM) L858R.

The values below come from patent US9670213B2, “Pteridine ketone derivative and applications thereof as EGFR, BLK, and FLT3 inhibitor” (EAST CHINA UNIVERSITY OF SCIENCE AND TECHNOLOGY, priority 2012, dated 2017).
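Throughout, for Inhibitory activity on EGFR kinase (IC50, nM) L858R: Cell-free kinase reaction with peptide substrate and ATP, 1.5 h at room temperature, then development step cleaving non-phosphorylated peptide, 10-point dilution series 0.051–1000 nM, phosphopeptide as 100% phosphorylation control.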
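Throughout, for Inhibitory activity on EGFR kinase (IC50, nM) T790M/L858R: Cell-free kinase reaction with peptide substrate and ATP, 1.5 h at room temperature, development cleaving unphosphorylated peptide, 10-point dilution 0.051–1000 nM, phosphopeptide as 100% phosphorylation control.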
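Throughout, for Inhibitory activity on EGFR kinase (IC50, nM) WT: Ten-point dose series from 5.1×10^−11 to 1.0×10^−6 mol/L, kinase reaction 1.5 h at room temperature, then 1 h development cleaving unphosphorylated peptide, phosphopeptide as 100% phosphorylation control.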

Chain of EGFR-T790M (P00533 25-1210 T790M): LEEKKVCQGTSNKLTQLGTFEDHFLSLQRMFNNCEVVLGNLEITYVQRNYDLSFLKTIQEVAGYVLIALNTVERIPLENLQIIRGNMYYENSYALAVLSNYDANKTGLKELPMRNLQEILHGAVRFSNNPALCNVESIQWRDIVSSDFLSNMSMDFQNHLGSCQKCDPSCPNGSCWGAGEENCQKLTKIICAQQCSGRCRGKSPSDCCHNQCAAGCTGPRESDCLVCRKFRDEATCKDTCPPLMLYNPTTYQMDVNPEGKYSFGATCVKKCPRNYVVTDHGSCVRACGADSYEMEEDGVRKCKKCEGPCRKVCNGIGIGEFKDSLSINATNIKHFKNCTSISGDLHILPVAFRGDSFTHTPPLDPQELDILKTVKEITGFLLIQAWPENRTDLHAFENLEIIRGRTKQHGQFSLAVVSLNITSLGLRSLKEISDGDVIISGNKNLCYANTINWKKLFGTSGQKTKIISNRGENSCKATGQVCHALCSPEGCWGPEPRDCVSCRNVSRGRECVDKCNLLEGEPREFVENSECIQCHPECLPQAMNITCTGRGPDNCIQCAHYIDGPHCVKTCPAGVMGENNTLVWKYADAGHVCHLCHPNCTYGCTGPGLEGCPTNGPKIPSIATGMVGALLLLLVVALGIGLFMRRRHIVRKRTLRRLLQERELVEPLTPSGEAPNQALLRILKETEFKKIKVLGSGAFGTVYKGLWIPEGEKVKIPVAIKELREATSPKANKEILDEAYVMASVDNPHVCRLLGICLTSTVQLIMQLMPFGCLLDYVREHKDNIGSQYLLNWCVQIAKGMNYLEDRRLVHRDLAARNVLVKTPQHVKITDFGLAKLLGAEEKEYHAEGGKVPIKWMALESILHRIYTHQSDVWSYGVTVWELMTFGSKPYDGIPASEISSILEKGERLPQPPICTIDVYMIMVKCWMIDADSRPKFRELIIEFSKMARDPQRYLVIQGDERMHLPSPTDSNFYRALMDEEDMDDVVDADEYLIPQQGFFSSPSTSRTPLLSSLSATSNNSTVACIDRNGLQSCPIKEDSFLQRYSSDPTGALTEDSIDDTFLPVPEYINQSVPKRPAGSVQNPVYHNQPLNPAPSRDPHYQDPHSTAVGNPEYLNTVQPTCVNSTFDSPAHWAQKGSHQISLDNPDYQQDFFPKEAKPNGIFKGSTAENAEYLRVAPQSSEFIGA

`COc1ccc(Nc2ncc3ncc(=O)n(-c4ccc(NC(=O)/C=C/CN(C)C)cc4)c3n2)cc1` [Compound 009, 4-(dimethylamino)-N-(4-(2-(4-methoxyphenylamino)-7-oxo-8(7H)-pteridin-yl)phenyl)-2-buteneamide]: the IC50 in experiment [1] was determined as 10.9 nM; in [2], 5310 nM; in [3] it was 152 nM; in experiment [4], 39.1 nM; in experiment [5] it was 2.24 µM; in experiment [6] it was 2.41 µM. The IC50 was 0.84 µM in experiment [7]; 1.15 µM in experiment [8]; 60.7 nM in experiment [9]; 0.91 µM in experiment [10]; 4.65 µM in experiment [11]; 81.1 nM in experiment [12].
For `C=CC(=O)Nc1cccc(-n2c(=O)cnc3cnc(Nc4ccc(OC)cc4)nc32)c1` [Compound 006, N-(3-(2-(4-methoxyphenylamino)-7-oxo-8(7H)-pteridin-yl)phenyl) acrylamide], the IC50 is 19.4 nM in experiment [1]; 69 nM in [2]; 1590 nM in experiment [3]; 8.4 nM in experiment [4]; 0.73 µM in experiment [5]; 15 µM in experiment [6]. Moreover, the IC50 stood at 2.24 µM in [7]; 2.35 µM in [8]; 10.6 nM in [9]; 0.009 µM in experiment [10]; 0.133 µM in experiment [11]; 10.1 nM in experiment [12].
